Measurements taken from US20230192660A1 (priority 2020, published 2023).
Values after ≈ are worked out from the molar mass of the structure shown. Values joined by “and” are separate entries in the source; they are usually repeats but may differ in a detail not shown here. Equal entries are not always repeated. Where two headings read alike, the source gives them in different places.

Legend:
SARS-CoV-2 M^pro-His6 = SARS-CoV-2 M^pro-His6 (Severe acute respiratory syndrome coronavirus 2, UniProt P0DTD1); assay: biochemical; settings: for inhibition at 150 µM: read-out: inhibition of enzyme activity
physchem = settings: aqueous buffer, kinetic from dmso stock
HCoV229E Mpro = HCoV229E Mpro (Human coronavirus 229E, UniProt P0C6X1); assay: biochemical
in vitro [1] = settings: human, Caco-2
in vitro [2] = settings: human
in vitro [3] = settings: human; remark: listed apart in the source
SARS-CoV-2 mature Mpro = SARS-CoV-2 mature Mpro (Severe acute respiratory syndrome coronavirus 2, UniProt P0DTD1); format: binding; settings: 3 μM Mpro, 30 μM compound
in vitro [4] = settings: mouse, plasma
MERS Mpro = MERS Mpro (Middle East respiratory syndrome-related coronavirus, UniProt K9N7C7); assay: biochemical
Human Cathepsin B = Human Cathepsin B (Homo sapiens, UniProt P07858); assay: Cathepsin B protease specificity assay (Z-LR-AMC substrate); format: biochemical
MHV M^pro = MHV M^pro (UniProt P0C6X9); assay: In-vitro Mpro inhibition assay, MHV enzyme; format: biochemical, mouse hepatitis virus (MHV)
Huh7 cells [5] = settings: read-out: CC50 Huh7; 72h incubation
[6] = not given; remark: listed apart in the source
Human Cathepsin L = Human Cathepsin L (Homo sapiens, UniProt P07711); assay: biochemical; settings: 0.01 ng/uL Cathepsin L, pH 5.5, 2 mM DTT; read-out: IC50 HCathepsin L
[7] = not given; remark: listed apart in the source
SARSCoV2 = format: cell-based, SARS-CoV-2
in vitro [8] = settings: human, Caco-2; remark: listed apart in the source
mature SARSCoV2 M^pro = mature SARSCoV2 M^pro (Severe acute respiratory syndrome coronavirus 2, UniProt P0DTD1); assay: biochemical; set-up: species or system SARS-CoV-2
[9] = after a nasal dose; cited from earlier work
[10] = after a maximal 750 mg dose; cited from earlier work
in vitro [11] = settings: human plasma
Huh7 cells [12] = settings: 100 μM, Huh-7 cells
[13] = 0.05 ng/uL Cathepsin B, pH 5.5, 2 mM DTT, read-out: IC50 HCathepsin B
[14] = 100 nM MHV Mpro, read-out: IC50 MHV Mpro
[15] = 20 nM SARSCoV2 Mpro, 30 min incubation, read-out: IC50 SARSCov2 Mpro
[16] = Example 6, read-out: IC50 against SARS-CoV-2 Mpro

Chain of MHV M^pro (P0C6X9 3334-3635): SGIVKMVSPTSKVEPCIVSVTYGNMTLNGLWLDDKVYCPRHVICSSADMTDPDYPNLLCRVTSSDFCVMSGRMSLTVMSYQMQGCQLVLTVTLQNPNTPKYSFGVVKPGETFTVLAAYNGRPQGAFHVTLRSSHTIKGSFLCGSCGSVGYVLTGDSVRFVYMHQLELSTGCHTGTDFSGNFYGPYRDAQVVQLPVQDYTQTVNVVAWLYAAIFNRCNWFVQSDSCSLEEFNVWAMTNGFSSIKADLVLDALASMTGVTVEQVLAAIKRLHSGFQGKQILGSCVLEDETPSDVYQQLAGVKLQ
Chain of HCoV229E Mpro (P0C6X1 2966-3267): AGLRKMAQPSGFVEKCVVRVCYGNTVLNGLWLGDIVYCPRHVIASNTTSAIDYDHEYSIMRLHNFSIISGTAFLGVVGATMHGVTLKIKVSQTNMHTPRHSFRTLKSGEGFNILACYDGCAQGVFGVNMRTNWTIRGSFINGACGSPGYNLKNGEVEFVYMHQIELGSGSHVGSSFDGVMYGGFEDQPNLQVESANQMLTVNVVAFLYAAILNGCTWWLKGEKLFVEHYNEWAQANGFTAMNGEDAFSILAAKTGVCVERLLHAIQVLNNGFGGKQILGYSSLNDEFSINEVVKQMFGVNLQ
Chain of MERS Mpro (K9N7C7 3248-3553 limits assumed): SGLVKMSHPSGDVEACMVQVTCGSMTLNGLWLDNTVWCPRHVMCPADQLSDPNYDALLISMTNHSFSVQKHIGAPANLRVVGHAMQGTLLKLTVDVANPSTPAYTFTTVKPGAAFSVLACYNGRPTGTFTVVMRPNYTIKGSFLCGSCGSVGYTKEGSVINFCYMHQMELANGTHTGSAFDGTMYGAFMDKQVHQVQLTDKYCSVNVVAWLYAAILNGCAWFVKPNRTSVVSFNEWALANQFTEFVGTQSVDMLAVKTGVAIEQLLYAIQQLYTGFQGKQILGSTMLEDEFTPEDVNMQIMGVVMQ
Chain of Human Cathepsin L (P07711 114-333): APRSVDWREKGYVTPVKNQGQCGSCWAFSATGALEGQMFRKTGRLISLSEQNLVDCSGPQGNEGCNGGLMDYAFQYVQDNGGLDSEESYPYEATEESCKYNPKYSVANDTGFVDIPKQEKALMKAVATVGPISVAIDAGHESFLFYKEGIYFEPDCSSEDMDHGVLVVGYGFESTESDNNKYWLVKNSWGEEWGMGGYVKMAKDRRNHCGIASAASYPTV

Row | Structure (SMILES) | solubility kinetic (physchem) | IC50 (HCoV229E Mpro) | Papp A→B (in vitro [1]) | Papp B→A (in vitro [1]) | CC50 (in vitro [2]) | CC50 (in vitro [3]) | ΔTm Mpro (SARS-CoV-2 mature Mpro) | half-life (in vitro [4]) | IC50 (MERS Mpro) | IC50 (Human Cathepsin B; [13]) | IC50 (MHV M^pro; [14]) | IC50 (Human Cathepsin L) | Plasma Stability Human T1/2 [7] | IC50 (mature SARSCoV2 M^pro; [15]) | other results
1 | CC(C)c1nc(CN(C)C(=O)N[C@H](C(=O)N[C@@H](Cc2ccccc2)C[C@H](O)[C@H](Cc2ccccc2)NC(=O)OCc2cncs2)C(C)C)cs1 [ritonavir] |  |  |  |  |  |  |  |  |  |  |  |  |  |  | inhibition at 150 µM (SARS-CoV-2 M^pro-His6; 150 μM drug, 2 mM DTT, 100 nM M^pro-His6): < 50%; inhibition of M^pro activity (SARS-CoV-2 M^pro-His6; 150 μM, absence of DTT (air-equilibrated buffer)): no inhibitory effect
2 | CNC(=O)C(=O)[C@H](C[C@@H]1CCNC1=O)NC(=O)[C@@H]1[C@@H]2[C@H](CN1C(=O)CNc1c(F)cc(F)cc1F)C2(C)C [ML104m] | 98 µM (≈ 52.7 µg/mL) | 0.23 µM | 5 nm/s | 25 nm/s | > 100 µM | > 100 µM | 17.1 °C | 1.35 h | 0.29 µM |  |  |  |  |  | 
3 | CC(C)C[C@H](NC(=O)OCc1ccccc1)C(=O)N[C@@H](CC1CCNC1=O)C(O)S(=O)(=O)[O-].[Na+] (stereo partly drawn) [GC-376, reference compound] |  |  |  |  |  |  |  |  |  | 0.001 µM | 0.05 µM | 0.001 µM | 1.58 h |  | IC50 (MHV M^pro; read-out: IC50, 100 nM mature MHV M^pro at 30° C., 100 nM enzyme, 30° C.): 0.067 µM; CC50 (Huh7 cells [5]): > 100 µM; Kinetic Solubility in PBS: 71 µM; Plasma Stability Mouse T1/2 [6]: 3.87 h; Caco-2 Permeability Papp A-B (Caco-2; A-B): <0.3 10-6 cm/s; Caco-2 Permeability Papp B-A (Caco-2): 5 10-6 cm/s; EC50 (SARSCoV2; read-out: EC50): 0.0001 µM
4 | CCN(CC)C(=S)SSC(=S)N(CC)CC [disulfiram] |  |  |  |  |  |  |  |  |  |  |  |  |  |  | inhibition at 150 µM (SARS-CoV-2 M^pro-His6): < 50%
5 | COc1cccc2[nH]c(C(=O)N3C[C@H]4[C@@H]([C@H]3C(=O)N[C@@H](C[C@@H]3CCNC3=O)C(=O)C(N)=O)C4(C)C)cc12 [ML105] | 80 µM (≈ 40.8 µg/mL) | 0.01 µM | < 2 nm/s | 3 nm/s | > 100 µM | > 100 µM | 18.6 °C | 0.333 h | 0.34 µM | 0.7 µM | 0.06 µM | 0.3 µM | ∞ | 0.02 µM | CC50 (in vitro [8]): > 100 µM; IC50 (mature SARSCoV2 M^pro; [16]): < 0.05 µM
6 | CCOC(=O)/C=C/[C@H](C[C@@H]1CCNC1=O)NC(=O)[C@@H](CC(=O)[C@@H](NC(=O)c1cc(C)on1)C(C)C)Cc1ccc(F)cc1 [rupintrivir] |  |  |  |  |  |  |  |  |  |  |  |  |  |  | concentration on nasal surfaces [9]: 5 µM
7 | O=c1c2ccccc2[se]n1-c1ccccc1 [ebselen] |  |  |  |  |  |  |  |  |  |  |  |  |  |  | inhibition at 150 µM (SARS-CoV-2 M^pro-His6): < 50%
8 | CCC[C@H](NC(=O)[C@@H]1[C@H]2CCC[C@H]2CN1C(=O)[C@@H](NC(=O)[C@@H](NC(=O)c1cnccn1)C1CCCCC1)C(C)(C)C)C(=O)C(=O)NC1CC1 [Telaprevir, telaprevir, reference compound] |  |  |  |  | 10 to 100 µM | 10 to 100 µM |  |  |  |  |  | 25 µM |  |  | IC50 (Human Cathepsin B): 36 µM; peak plasma concentration [10]: 5 µM
9 | CC(C)(C)[C@H](NC(=O)C12CC(C1)C2)C(=O)N1C[C@H]2[C@@H]([C@H]1C(=O)N[C@@H](C[C@@H]1CCNC1=O)C(=O)C(N)=O)C2(C)C [ML1002] | > 100 µM | 0.26 µM | < 2 nm/s | < 2 nm/s | > 100 µM | > 100 µM | 21.6 °C | 0.35 h | 0.19 µM |  |  |  |  | 0.02 µM | IC50 (mature SARSCoV2 M^pro; [16]): < 0.05 µM
10 | CNC(=O)C(=O)[C@H](C[C@@H]1CCNC1=O)NC(=O)[C@@H]1[C@@H]2[C@H](CN1C(=O)[C@@H](NC(=O)C13CC(C1)C3)C(C)(C)C)C2(C)C [ML1002m] | > 100 µM | 0.4 µM | 4 nm/s | 7 nm/s | > 100 µM | > 100 µM | 21 °C | 2.83 h | 0.25 µM |  |  |  |  | 0.02 µM | 
11 | CC1(C)[C@@H]2[C@@H](C(=O)NC(C[C@@H]3CCNC3=O)C(=O)C(N)=O)N(C(=O)CNc3c(F)cc(F)cc3F)C[C@@H]21 (stereo partly drawn) [ML104] | 86 µM (≈ 45 µg/mL) | 0.44 µM | < 2 nm/s | 9 nm/s | > 100 µM | > 100 µM | 17.5 °C | 1.67 h | 0.19 µM | 17 µM | 0.25 µM | 11 µM | ∞ |  | CC50 (in vitro [8]): > 100 µM; IC50 (mature SARSCoV2 M^pro; [16]): < 0.05 µM and 0.03 µM
12 | CC1(C)[C@@H]2[C@@H](C(=O)N[C@@H](C[C@@H]3CCNC3=O)C(=O)C(N)=O)N(C(=O)CCc3ccccc3)C[C@@H]21 [ML102] | 83 µM (≈ 38.9 µg/mL) | 0.29 µM | < 2 nm/s | 7 nm/s | > 100 µM | > 100 µM | 15.5 °C | 0.3 h | 1.2 µM | 2.2 µM | 0.98 µM | 0.8 µM | ∞ | 0.09 µM | 
13 | CC(C)(C)CC(=O)N[C@H](C(=O)N1C[C@H]2[C@@H]([C@H]1C(=O)NC(C[C@@H]1CCNC1=O)C(=O)C(N)=O)C2(C)C)C(C)(C)C (stereo partly drawn) [ML1001] | 66 µM (≈ 36.1 µg/mL) | 0.5 µM | < 2 nm/s | 5 nm/s | > 100 µM | > 100 µM | 21.6 °C | 0.433 h | 0.26 µM | 42 µM | 0.07 µM | 33 µM |  |  | CC50 (in vitro [8]): > 100 µM; half-life (in vitro [11]): 5.5 h
14 | CNC(=O)C(=O)[C@H](C[C@@H]1CCNC1=O)NC(=O)[C@@H]1[C@@H]2[C@H](CN1C(=O)CCc1ccccc1)C2(C)C [ML102m] | > 100 µM | 0.72 µM | 4 nm/s | 18 nm/s | > 100 µM | > 100 µM | 15.2 °C | 0.75 h | 1.1 µM |  |  |  |  | 0.12 µM | 
15 | CC(C)(C)NC(=O)N[C@H](C(=O)N1C[C@H]2[C@@H]([C@H]1C(=O)N[C@@H](C[C@@H]1CCNC1=O)C(=O)C(N)=O)C2(C)C)C(C)(C)C [ML1000] |  | 0.13 µM |  |  |  |  |  |  |  | 5.9 µM |  | 3.2 µM | 1.82 h |  | cytotoxicity at the highest dose tested (Huh7 cells [12]): no cytotoxicity; CC50 (Huh7 cells [5]): > 100 µM; Kinetic Solubility in PBS: 87 µM; Plasma Stability Mouse T1/2 [6]: 0.383 h; Caco-2 Permeability Papp B-A (Caco-2): 0.4 10-6 cm/s; Caco-2 Permeability Papp A-B (Caco-2; Caco-2): <0.2 10-6 cm/s; IC50 (MERS Mpro; read-out: IC50 MERS Mpro): 0.53 µM; EC50 (SARSCoV2; read-out: EC50: 50% effective antiviral concentration): 0.1 µM
